Reference: ChEMBL document CHEMBL3045509, “Oxadiazolo pyrrolidine carboxamides as enoyl-ACP reductase inhibitors: design, synthesis and antitubercular activity screening” (2013)
In brackets after ≈: the same amount, converted by molar mass.

Each compound was assayed on Mycobacterium tuberculosis (assay: Antitubercular activity against Mycobacterium tuberculosis H37Rv MTCC 300 after 7 days by Alamar blue assay). Conditions: H37Rv MTCC 300, 168 h.
Type: functional

Structure (SMILES) | MIC
O=C(Nc1nnc(-c2ccc([N+](=O)[O-])cc2)o1)C1CC(=O)N(c2ccccc2)C1 (stereo unspecified) | 25 µg/mL (≈ 63.6 µM)
COc1ccc(-c2nnc(NC(=O)C3CC(=O)N(c4ccccc4)C3)o2)cc1 (stereo unspecified) | 3.12 µg/mL (≈ 8.26 µM)
Cc1ccc(-c2nnc(NC(=O)C3CC(=O)N(c4ccccc4)C3)o2)cc1 (stereo unspecified) | 50 µg/mL (≈ 138 µM)
O=C(Nc1nnc(-c2ccc(Cl)cc2)o1)C1CC(=O)N(c2ccccc2)C1 (stereo unspecified) | 25 µg/mL (≈ 65.3 µM)
O=C(Nc1nnc(-c2ccccc2)o1)C1CC(=O)N(c2ccccc2)C1 (stereo unspecified) | 12.5 µg/mL (≈ 35.9 µM)
NNC(=O)c1ccncc1 [ISONIAZID] | 0.25 µg/mL (≈ 1.82 µM)
